Results published in publication PMC10674160, “Synthesis and Preclinical Evaluation of Radiolabeled [^103Ru]BOLD-100” (Pharmaceutics, 2023).

Experiment: Tissue distribution in CT26 allograft bearing Balb/c mice (ICP-MS for 3a, gamma counting for 3b)
Assay type: in vivo
Description: UV/Vis spectra were recorded on a Hitachi U-2000 Dual Beam spectrophotometer. Sample activities were measured on an ISOMED 2010 dose calibrator. For centrifugation during synthesis, a Fisherbrand^TM Mini-Centrifuge from Fisher Scientific was used. Radioactive organ samples were measured on Perkin Elmer Wizard^2 gamma counter. Non-radioactive organ samples were prepared, and the ruthenium content was quantified with ICP-MS. The exact procedure including instrument information can be found in the Supplementary Materials.
For the evaluation of organ distribution, CT26 cells (5 × 10^5 in serum-free medium) were injected subcutaneously into the right flank of Balb/c mice. Animals were controlled for distress development every day and tumor size was assessed regularly using caliper measurements. CT26 cells were inoculated 10 days prior to drug application. Tumor volume was calculated using the formula: (length × width^2); the tumors reached a size of about 500 mm^3. Animals were treated once intravenously (i.v.) via tail-vein injection with 3a or 3b at a dose of 30 mg/kg (dissolved in 0.9% NaCl, 0.6 mg/100 µL/20 g mouse) and a specific activity of 0.64–1.36 MBq/mg for compound 3b. The mice were anesthetized and sacrificed by cervical fracture 4, 24, 48 and 72 h p.i., with n ≥ 2 (3a) and n ≥ 3 (3b) for each time point. Samples of tumor, liver, kidney, muscle, heart, lung, spleen, pancreas, stomach, colon, small intestine, brain, bone, and blood were collected from each mouse. After clotting at RT, serum was isolated from the collected blood samples by centrifugation at 3000 rpm for 10 min twice and stored together with the collected tissue samples at −20 °C. Finally, the ruthenium content was quantified by ICP-MS in the case of the non-radioactive BOLD-100 (3a) and via gamma counting for [^103Ru]BOLD-100 (3b).
An Agilent 7800 ICP-MS (Agilent Technologies, Tokyo, Japan) was being employed, which was equipped with an Agilent SPS 4 autosampler (Agilent Technologies, Tokyo, Japan) and a MicroMist nebulizer at a sample uptake rate of approx. 0.2 mL/min. The Agilent MassHunter software package (Workstation Software, Version C.01.04, 2018) was used for data evaluation. The instrumental parameters […]
Reference source not found..
Ta ble S1: Instrumental parameters for the ICP-MS measurements […]
Spray chamber Scott double-pass
Spraying chamber temp. 2°C
Nebulizer gas 1.06 L min−1
Auxiliary gas 0.90 L min−1
The instrumental limit of quantification (LOQ) was determined at the start of the measurement by […]
LOQ = blank average + 10*STD
Blank corrections were performed for all the samples. Robustness was ensured by tuning the ICP-MS on a daily basis, by using an internal standard (115In) and measuring calibration standards for each […]
Ultrapure water (18.2 MΩ cm, ELGA Water purification system, Purelab Ultra MK 2, UK or 18.2 MΩ cm, Milli-Q Advantage, Darmstadt, Germany), HNO3 (≥69%, Rotipuran Supra, Carl Roth, Karlsruhe, Germany) and H2O2 (30%, Suprapur, Merck, Darmstadt, Germany) were used for all dilutions for ICP-MS measurements. The Ru standard solution was purchased from Labkings (Hilversum, The Netherlands).
For the digestion, approx. 25–50 mg of each organ sample were weighed into PFA-tubes, with 2 mL HNO3 and 100 µL H2O2 being added. The solutions were then placed on a hot plate and heated up for 6 hours using a temperature program with a maximum temperature of 200 °C. After cooling down, the liquids were transferred directly to 15 mL tubes with the remaining solution being removed from the PFA tubes by washing twice with 4 mL ultrapure water, resulting in a final volume of about 10 mL. By writing down the total weight of the resulting liquid, the dilution factor could be calculated.

[1] = Tumor, 24 h p.i., 30 mg/kg i.v.

For `[Cl][Ru]([Cl])([Cl])[Cl].[Na+].c1ccc2[nH]ncc2c1.c1ccc2[nH]ncc2c1` [3b, [^103Ru]sodium trans-[tetrachloridobis(indazole)ruthenate(III)]], the “tumor/organ ratio Blood cells” value (Blood cells, 4 h) was 0.4 ± 0.1, the “%ID/g tissue Blood cells” value (Blood cells, 4 h p.i., 30 mg/kg i.v.) was 11.98 ± 2.26 %ID/g tissue and the “%ID/g tissue Blood cells” value (Blood cells, 24 h p.i., 30 mg/kg i.v.) was 3.41 ± 0.97 %ID/g tissue. For the same compound, the “%ID/g tissue Blood cells” value (Blood cells, 48 h p.i., 30 mg/kg i.v.) was 2.94 ± 1.32 %ID/g tissue, the “%ID/g tissue Blood cells” value (Blood cells, 72 h p.i., 30 mg/kg i.v.) was 2.19 ± 0.96 %ID/g tissue and the “tumor/organ ratio Bones” value (4 h) was 3.4 ± 0.5. The “%ID/g tissue Bones” value (4 h p.i., 30 mg/kg i.v.) was 1.34 ± 0.30 %ID/g tissue, the “tumor/organ ratio Bones” value (24 h) was 5.4 ± 0.6 and the “%ID/g tissue Bones” value (24 h p.i., 30 mg/kg i.v.) was 1.19 ± 0.29 %ID/g tissue. The “tumor/organ ratio Bones” value (48 h) was 7.0 ± 0.8, the “%ID/g tissue Bones” value (48 h p.i., 30 mg/kg i.v.) was 0.90 ± 0.24 %ID/g tissue and the “tumor/organ ratio Bones” value (72 h) was 4.9 ± 1.7. For the same compound, the “%ID/g tissue Bones” value (72 h p.i., 30 mg/kg i.v.) was 1.00 ± 0.15 %ID/g tissue, the “tumor/organ ratio Brain” value (4 h) was 10.7 ± 3.3 and the “%ID/g tissue Brain” value (4 h p.i., 30 mg/kg i.v.) was 0.46 ± 0.20 %ID/g tissue. For the same compound, the “tumor/organ ratio Brain” value (24 h) was 51.9 ± 4.4, the “%ID/g tissue Brain” value (24 h p.i., 30 mg/kg i.v.) was 0.12 ± 0.02 %ID/g tissue and the “tumor/organ ratio Brain” value (48 h) was 53.3 ± 14.3. For the same compound, the “%ID/g tissue Brain” value (48 h p.i., 30 mg/kg i.v.) was 0.13 ± 0.05 %ID/g tissue, the “tumor/organ ratio Brain” value (72 h) was 54.3 ± 15.1 and the “%ID/g tissue Brain” value (72 h p.i., 30 mg/kg i.v.) was 0.09 ± 0.05 %ID/g tissue. For the same compound, the “%ID/g tissue Colon” value (4 h p.i., 30 mg/kg i.v.) was 3.89 ± 0.96 %ID/g tissue, the “%ID/g tissue Colon” value (24 h p.i., 30 mg/kg i.v.) was 1.88 ± 0.37 %ID/g tissue and the “%ID/g tissue Colon” value (48 h p.i., 30 mg/kg i.v.) was 2.34 ± 0.72 %ID/g tissue. The “%ID/g tissue Colon” value (72 h p.i., 30 mg/kg i.v.) was 2.19 ± 0.77 %ID/g tissue, the “tumor/organ ratio Fat” value (4 h) was 5.1 ± 2.1 and the “tumor/organ ratio Fat” value (24 h) was 10.3 ± 2.1. The “tumor/organ ratio Fat” value (48 h) was 13.3 ± 5.0, the “tumor/organ ratio Fat” value (72 h) was 8.6 ± 3.5 and the “tumor/organ ratio Heart” value (4 h) was 0.8 ± 0.2. For the same compound, the “%ID/g tissue Heart” value (4 h p.i., 30 mg/kg i.v.) was 5.93 ± 1.10 %ID/g tissue, the “tumor/organ ratio Heart” value (24 h) was 2.0 ± 0.2 and the “%ID/g tissue Heart” value (24 h p.i., 30 mg/kg i.v.) was 3.24 ± 0.73 %ID/g tissue. The “tumor/organ ratio Heart” value (48 h) was 2.1 ± 0.2, the “%ID/g tissue Heart” value (48 h p.i., 30 mg/kg i.v.) was 2.98 ± 0.41 %ID/g tissue and the “tumor/organ ratio Heart” value (72 h) was 1.5 ± 0.4. The “%ID/g tissue Heart” value (72 h p.i., 30 mg/kg i.v.) was 3.12 ± 0.84 %ID/g tissue, the “tumor/organ ratio Kidneys” value (4 h) was 0.4 ± 0.1 and the “%ID/g tissue Kidneys” value (4 h p.i., 30 mg/kg i.v.) was 12.98 ± 2.87 %ID/g tissue. The “tumor/organ ratio Kidneys” value (24 h) was 0.5 ± 0.1, the “%ID/g tissue Kidneys” value (24 h p.i., 30 mg/kg i.v.) was 12.55 ± 0.74 %ID/g tissue and the “tumor/organ ratio Kidneys” value (48 h) was 0.5 ± 0.1. For the same compound, the “%ID/g tissue Kidneys” value (48 h p.i., 30 mg/kg i.v.) was 11.79 ± 2.66 %ID/g tissue, the “%ID/g tissue Kidneys” value (72 h p.i., 30 mg/kg i.v.) was 13.14 ± 5.56 %ID/g tissue and the “tumor/organ ratio Liver” value (4 h) was 0.2 ± 0.2. For the same compound, the “%ID/g tissue Liver” value (4 h p.i., 30 mg/kg i.v.) was 24.41 ± 3.17 %ID/g tissue, the “tumor/organ ratio Liver” value (24 h) was 0.5 ± 0.1 and the “%ID/g tissue Liver” value (24 h p.i., 30 mg/kg i.v.) was 13.83 ± 3.38 %ID/g tissue. For the same compound, the “tumor/organ ratio Liver” value (48 h) was 0.4 ± 0.1, the “%ID/g tissue Liver” value (48 h p.i., 30 mg/kg i.v.) was 14.54 ± 2.69 %ID/g tissue and the “tumor/organ ratio Liver” value (72 h) was 0.4 ± 0.1. The “%ID/g tissue Liver” value (72 h p.i., 30 mg/kg i.v.) was 12.26 ± 2.85 %ID/g tissue, the “%ID/g tissue Lung” value (4 h p.i., 30 mg/kg i.v.) was 9.77 ± 1.75 %ID/g tissue and the “%ID/g tissue Lung” value (24 h p.i., 30 mg/kg i.v.) was 5.89 ± 3.04 %ID/g tissue. For the same compound, the “%ID/g tissue Lung” value (48 h p.i., 30 mg/kg i.v.) was 5.08 ± 1.93 %ID/g tissue, the “%ID/g tissue Lung” value (72 h p.i., 30 mg/kg i.v.) was 4.47 ± 2.10 %ID/g tissue and the “%ID/g tissue Muscle” value (4 h p.i., 30 mg/kg i.v.) was 1.05 ± 0.14 %ID/g tissue. The “%ID/g tissue Muscle” value (24 h p.i., 30 mg/kg i.v.) was 0.57 ± 0.19 %ID/g tissue, the “%ID/g tissue Muscle” value (48 h p.i., 30 mg/kg i.v.) was 0.60 ± 0.16 %ID/g tissue and the “%ID/g tissue Muscle” value (72 h p.i., 30 mg/kg i.v.) was 0.65 ± 0.17 %ID/g tissue. For the same compound, the “%ID/g tissue Pancreas” value (4 h p.i., 30 mg/kg i.v.) was 3.75 ± 1.07 %ID/g tissue, the “%ID/g tissue Pancreas” value (24 h p.i., 30 mg/kg i.v.) was 1.74 ± 0.39 %ID/g tissue and the “%ID/g tissue Pancreas” value (48 h p.i., 30 mg/kg i.v.) was 2.50 ± 1.33 %ID/g tissue. For the same compound, the “%ID/g tissue Pancreas” value (72 h p.i., 30 mg/kg i.v.) was 2.01 ± 0.75 %ID/g tissue, the “tumor/organ ratio Serum” value (4 h) was 0.2 ± 0.0 and the “%ID/g tissue Serum” value (4 h p.i., 30 mg/kg i.v.) was 28.02 ± 4.87 %ID/g tissue. The “tumor/organ ratio Serum” value (24 h) was 0.8 ± 0.1, the “%ID/g tissue Serum” value (24 h p.i., 30 mg/kg i.v.) was 8.57 ± 3.37 %ID/g tissue and the “tumor/organ ratio Serum” value (48 h) was 1.3 ± 0.4. For the same compound, the “%ID/g tissue Serum” value (48 h p.i., 30 mg/kg i.v.) was 5.31 ± 2.78 %ID/g tissue, the “tumor/organ ratio Serum” value (72 h) was 1.4 ± 0.3 and the “%ID/g tissue Serum” value (72 h p.i., 30 mg/kg i.v.) was 3.63 ± 1.78 %ID/g tissue. For the same compound, the “%ID/g tissue Small intestine” value (4 h p.i., 30 mg/kg i.v.) was 5.49 ± 1.12 %ID/g tissue, the “%ID/g tissue Small intestine” value (24 h p.i., 30 mg/kg i.v.) was 2.49 ± 0.76 %ID/g tissue and the “%ID/g tissue Small intestine” value (48 h p.i., 30 mg/kg i.v.) was 2.54 ± 0.95 %ID/g tissue. The “%ID/g tissue Small intestine” value (72 h p.i., 30 mg/kg i.v.) was 1.92 ± 0.47 %ID/g tissue, the “%ID/g tissue Spleen” value (4 h p.i., 30 mg/kg i.v.) was 4.63 ± 0.61 %ID/g tissue and the “%ID/g tissue Spleen” value (24 h p.i., 30 mg/kg i.v.) was 3.92 ± 0.66 %ID/g tissue. The “%ID/g tissue Spleen” value (48 h p.i., 30 mg/kg i.v.) was 6.01 ± 2.98 %ID/g tissue, the “%ID/g tissue Spleen” value (72 h p.i., 30 mg/kg i.v.) was 5.08 ± 1.56 %ID/g tissue and the “%ID/g tissue Stomach” value (4 h p.i., 30 mg/kg i.v.) was 2.88 ± 0.82 %ID/g tissue. For the same compound, the “%ID/g tissue Stomach” value (24 h p.i., 30 mg/kg i.v.) was 1.34 ± 0.22 %ID/g tissue, the “%ID/g tissue Stomach” value (48 h p.i., 30 mg/kg i.v.) was 1.60 ± 0.36 %ID/g tissue and the “%ID/g tissue Stomach” value (72 h p.i., 30 mg/kg i.v.) was 1.69 ± 0.64 %ID/g tissue. For the same compound, the “%ID/g tissue Tumor” value (Tumor, 4 h p.i., 30 mg/kg i.v.) was 4.49 ± 1.03 %ID/g tissue, the “%ID/g tissue Tumor” value [1] was 6.39 ± 1.44 %ID/g tissue and the “tumor uptake (highest level)” value [1] was 6.4 %ID/g. The “%ID/g tissue Tumor” value (Tumor, 48 h p.i., 30 mg/kg i.v.) was 6.19 ± 1.26 %ID/g tissue and the “%ID/g tissue Tumor” value (Tumor, 72 h p.i., 30 mg/kg i.v.) was 4.77 ± 1.68 %ID/g tissue.
